Read-outs that look alike come from different tables or passages of the source. Blank lines part the entries; values can stand above or below the molecule they belong to.
What was measured:
Assay in all cases: biochemical
Design in all cases: Thermal shift (DSF, SYPRO Orange) Tm shift of recombinant kinase domains at 10 uM compound
VRK1 = biological target: T1, VRK1 (Homo sapiens, UniProt Q99986)
T1 sequence (Q99986 1-396): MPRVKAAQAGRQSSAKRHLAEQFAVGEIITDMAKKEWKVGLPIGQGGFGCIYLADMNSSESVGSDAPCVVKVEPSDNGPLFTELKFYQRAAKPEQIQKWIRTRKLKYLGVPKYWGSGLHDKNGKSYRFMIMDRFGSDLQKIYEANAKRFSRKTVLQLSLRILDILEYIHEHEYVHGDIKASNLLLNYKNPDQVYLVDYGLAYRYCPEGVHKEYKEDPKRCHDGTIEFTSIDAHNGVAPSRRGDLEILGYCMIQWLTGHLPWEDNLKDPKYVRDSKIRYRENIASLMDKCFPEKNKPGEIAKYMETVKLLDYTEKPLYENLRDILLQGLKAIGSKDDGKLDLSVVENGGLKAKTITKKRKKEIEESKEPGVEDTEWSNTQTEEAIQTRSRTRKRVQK

CDK2 = CDK2 (Homo sapiens, UniProt P24941)
HIPK2 = HIPK2 (Homo sapiens, UniProt Q9H2X6)
CSNK2a1 = biological target: T2, CSNK2a1 (Homo sapiens, UniProt P68400)
T2 construct: kinase domain

PIM1 = PIM1 (Homo sapiens, UniProt P11309)
MST2 = biological target: T3, MST2 (Homo sapiens, UniProt Q13188)
T3 construct: gene STK3
T3 sequence (Q13188 1-491): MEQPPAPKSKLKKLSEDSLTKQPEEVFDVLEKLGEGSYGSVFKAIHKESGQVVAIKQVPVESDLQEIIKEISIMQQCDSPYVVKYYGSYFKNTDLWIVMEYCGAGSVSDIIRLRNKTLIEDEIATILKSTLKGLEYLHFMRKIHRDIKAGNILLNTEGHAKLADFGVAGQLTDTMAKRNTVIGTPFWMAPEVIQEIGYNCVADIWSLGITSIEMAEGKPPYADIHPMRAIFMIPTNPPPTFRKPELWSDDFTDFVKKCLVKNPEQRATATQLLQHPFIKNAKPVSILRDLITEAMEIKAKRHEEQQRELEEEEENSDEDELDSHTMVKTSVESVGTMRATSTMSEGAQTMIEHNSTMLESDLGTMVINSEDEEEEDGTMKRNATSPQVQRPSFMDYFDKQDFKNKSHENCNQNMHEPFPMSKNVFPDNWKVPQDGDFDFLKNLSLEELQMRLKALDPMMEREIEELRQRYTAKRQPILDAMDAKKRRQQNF

Erk2 = biological target: T4, Erk2 (Homo sapiens, UniProt P28482)
T4 construct: gene MAPK1
T4 sequence (P28482 whole entry): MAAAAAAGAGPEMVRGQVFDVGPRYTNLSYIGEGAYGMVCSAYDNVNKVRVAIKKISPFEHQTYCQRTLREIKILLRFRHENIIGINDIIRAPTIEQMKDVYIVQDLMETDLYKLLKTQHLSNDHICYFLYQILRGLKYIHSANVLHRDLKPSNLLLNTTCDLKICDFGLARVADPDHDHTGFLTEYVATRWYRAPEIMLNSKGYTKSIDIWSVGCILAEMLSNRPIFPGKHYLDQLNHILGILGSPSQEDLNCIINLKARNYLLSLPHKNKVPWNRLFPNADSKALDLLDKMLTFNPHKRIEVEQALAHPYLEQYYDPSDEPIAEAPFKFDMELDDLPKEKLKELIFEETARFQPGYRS

Chain of HIPK2 (Q9H2X6 whole entry): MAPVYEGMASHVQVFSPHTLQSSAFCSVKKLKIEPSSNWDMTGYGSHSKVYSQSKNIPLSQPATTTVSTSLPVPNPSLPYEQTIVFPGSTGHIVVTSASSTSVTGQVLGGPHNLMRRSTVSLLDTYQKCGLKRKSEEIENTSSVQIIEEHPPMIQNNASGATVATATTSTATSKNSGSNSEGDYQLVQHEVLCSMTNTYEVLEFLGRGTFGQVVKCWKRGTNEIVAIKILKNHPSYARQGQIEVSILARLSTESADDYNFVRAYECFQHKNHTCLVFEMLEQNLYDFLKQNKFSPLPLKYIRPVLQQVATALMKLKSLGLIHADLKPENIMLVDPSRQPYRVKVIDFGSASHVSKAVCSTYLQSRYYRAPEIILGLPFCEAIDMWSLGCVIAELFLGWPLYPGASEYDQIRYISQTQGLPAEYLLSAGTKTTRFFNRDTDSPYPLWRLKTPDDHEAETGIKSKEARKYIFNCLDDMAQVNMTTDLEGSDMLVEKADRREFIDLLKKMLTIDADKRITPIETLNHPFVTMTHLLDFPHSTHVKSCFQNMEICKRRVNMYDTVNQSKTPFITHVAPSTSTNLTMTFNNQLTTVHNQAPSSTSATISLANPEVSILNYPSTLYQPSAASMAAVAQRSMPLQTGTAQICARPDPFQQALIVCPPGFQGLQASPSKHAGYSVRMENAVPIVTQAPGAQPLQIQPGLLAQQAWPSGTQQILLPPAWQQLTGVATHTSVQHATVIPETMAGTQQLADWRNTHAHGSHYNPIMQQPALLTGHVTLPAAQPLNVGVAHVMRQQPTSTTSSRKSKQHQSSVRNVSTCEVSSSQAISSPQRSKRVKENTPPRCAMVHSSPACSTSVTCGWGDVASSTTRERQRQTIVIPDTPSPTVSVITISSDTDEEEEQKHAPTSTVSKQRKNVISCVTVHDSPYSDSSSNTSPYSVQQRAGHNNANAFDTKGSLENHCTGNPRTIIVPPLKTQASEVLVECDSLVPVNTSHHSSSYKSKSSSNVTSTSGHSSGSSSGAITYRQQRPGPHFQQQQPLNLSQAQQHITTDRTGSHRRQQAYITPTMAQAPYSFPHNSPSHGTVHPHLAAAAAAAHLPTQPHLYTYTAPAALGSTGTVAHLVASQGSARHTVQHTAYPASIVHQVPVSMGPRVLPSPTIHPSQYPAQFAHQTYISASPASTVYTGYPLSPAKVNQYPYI
Chain of PIM1 (P11309 whole entry): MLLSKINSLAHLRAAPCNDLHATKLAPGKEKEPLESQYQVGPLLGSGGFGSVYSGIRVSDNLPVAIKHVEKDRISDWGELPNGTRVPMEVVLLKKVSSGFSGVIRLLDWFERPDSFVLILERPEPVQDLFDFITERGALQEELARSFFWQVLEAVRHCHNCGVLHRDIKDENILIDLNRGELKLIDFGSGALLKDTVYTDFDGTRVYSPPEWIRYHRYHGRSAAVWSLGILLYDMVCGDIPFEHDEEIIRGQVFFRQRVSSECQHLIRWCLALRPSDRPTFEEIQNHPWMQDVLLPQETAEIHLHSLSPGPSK
T2 sequence (P68400 whole entry, the tested form may be a part): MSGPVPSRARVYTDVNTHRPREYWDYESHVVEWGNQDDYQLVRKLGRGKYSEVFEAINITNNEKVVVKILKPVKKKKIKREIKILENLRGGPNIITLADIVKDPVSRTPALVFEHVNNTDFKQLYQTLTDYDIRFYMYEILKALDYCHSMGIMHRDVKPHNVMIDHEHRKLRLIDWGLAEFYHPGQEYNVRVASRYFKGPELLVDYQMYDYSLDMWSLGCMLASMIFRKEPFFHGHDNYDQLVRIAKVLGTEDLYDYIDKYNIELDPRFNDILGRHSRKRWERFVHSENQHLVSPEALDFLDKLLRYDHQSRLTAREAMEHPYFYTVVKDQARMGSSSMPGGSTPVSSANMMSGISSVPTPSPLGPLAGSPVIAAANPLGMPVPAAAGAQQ

ΔTm at 10 µM (VRK1; read-out: 6c): 0 °C | ΔTm at 10 µM (CDK2; read-out: 6c): 5 °C | ΔTm at 10 µM (HIPK2; read-out: 6c): 9 °C | ΔTm at 10 µM (CSNK2a1; read-out: 6c): 15 °C | ΔTm at 10 µM (PIM1; read-out: 6c): 10 °C | ΔTm at 10 µM (MST2; read-out: 6c): 3 °C | ΔTm at 10 µM (Erk2; read-out: 6c): 0 °C
Structure (SMILES): CC(C)Oc1ccc2ccn(-c3cncc(-c4ccc(C(=O)O)cc4)n3)c2c1 [6c]

ΔTm at 10 µM (VRK1; read-out: 7c): 0 °C | ΔTm at 10 µM (CDK2; read-out: 7c): 1 °C | ΔTm at 10 µM (HIPK2; read-out: 7c): 7 °C | ΔTm at 10 µM (CSNK2a1; read-out: 7c): 15 °C | ΔTm at 10 µM (PIM1; read-out: 7c): 9 °C | ΔTm at 10 µM (MST2; read-out: 7c): 2 °C | ΔTm at 10 µM (Erk2; read-out: 7c): 0 °C
Structure (SMILES): COc1ccc(OC(C)C)cc1Nc1cncc(-c2ccc(C(=O)O)cc2)n1 [7c]

ΔTm at 10 µM (VRK1; read-out: 2): 1 °C | ΔTm at 10 µM (MST2; read-out: 2): 4 °C | ΔTm at 10 µM (Erk2; read-out: 2): 0 °C
Structure (SMILES): CC(C)Nc1ccc2cnn(-c3cncc(-c4ccc(C(=O)O)cc4)n3)c2c1 [compound 2, 2]

From paper doi:10.1101/2023.12.04.569845, “Identification of 4-(6-((2-methoxyphenyl)amino)pyrazin-2-yl)benzoic acids as CSNK2A inhibitors with antiviral activity and improved selectivity over PIM3” (bioRxiv, 2023)
